In article PMC6297231 (Nature Communications, 2018):
Where two headings read alike, the source gives them in different places.

Key:
HMCB = experiment: Cell viability assay; type: cell-based; settings: Homo sapiens, 24 h; HMCB (Skin); read-out: AZD5991 24h GI50
Protocol: (§4) Cells were plated at 3000 cells/well in 384-well white plates in corresponding cell growth media. […] Caspase-3/7 activation was subsequently determined using a Caspase-Glo 3/7 Reagent (Promega) and viability was assayed using the CellTiter-Glo Reagent (Promega) as described in manufacturer’s instructions. Dose–response curves for caspase-3/7 activation and viability were plotted and analyzed (including EC50 and GI50 determination) using GraphPad Prism.

KG1 = experiment: Caspase-3/7 activation assay; type: cell-based; settings: Homo sapiens, KG-1, 6 h
Protocol: as §4

H647 = experiment: Cell viability assay; type: cell-based; settings: Homo sapiens, NCI-H647, 24 h; H647 (Lung); read-out: AZD5991 24h GI50
Protocol: as §4

MOLP-8 tumors = experiment: MOLP-8 subcutaneous xenograft efficacy; type: in vivo
Protocol: Female C.B.-17 SCID mice and female nude rats were purchased from Charles River Laboratories. […]. All xenograft studies were conducted at our Association for the Assessment and Accreditation of Laboratory Animal Care accredited facility in Waltham, MA in accordance with ethical regulations described in the guidelines established by the internal Institutional Animal Care and Use Committee. […]. In mice, drugs were dosed intravenously in a volume of 5 mL kg^-1 except for venetoclax that was dosed orally in a volume of 10 mL kg^-1. […]. Ten million MV4-11 cells were injected subcutaneously in the right flank of rats in a volume of 0.1 mL. Tumor volumes (measured by caliper), animal body weight, and tumor condition were recorded twice weekly for the duration of the study. The tumor volume was calculated using the formula: length (mm) × width (mm)^2[…]. For efficacy studies, growth inhibition from the start of treatment was assessed by comparison of the differences in tumor volume between control and treated groups. Statistical significance was evaluated using non-parametric, unpaired, two-tailed t-test. For efficacy studies, animals were randomized based on tumor volumes using stratified sampling, and enrolled into control and treatment groups. Dosing began when mean tumor size reached ~230 mm^3 in mice and 900 mm^3 in rats. Mice were euthanized once tumor size reached 2000 mm^3. Mice were excluded from the study upon body weight loss > 10% of the body weight at the initiation of the study. For pharmacokinetic analysis, plasma samples were precipitated and diluted with acetonitrile containing internal standard and analyzed by LC–MS/MS versus a calibration curve of known concentrations.

Bfl-1 = biological target: T1, Bfl-1 (Homo sapiens, UniProt Q16548); experiment: TR-FRET binding assay
T1 construct: N-Terminal 6His-tagged Bfl-1 protein from Bfl-1 (M1-K151); made in house; host or cells: E. coli
Text: (§1) N-terminal GST-tagged-Mcl-1 protein from Mcl-1 (E171-G327), N-terminal GST-tagged Bcl-xL protein from Bcl-xL (1-209), N-Terminal 6His-tagged Bfl-1 protein from Bfl-1 (M1-K151), N-Terminal 6His-tagged Bcl-w protein from Bcl-w (M1-R171), and C-Terminal 6His-tagged Bcl-2 protein from Bcl-2 (M1-F212) were expressed as a tagged fusion protein in E. coli and subsequently purified via Glutathione Sepharose-affinity or Ni-NTA resin purification, and size-exclusion chromatography.
(§2) For TR-FRET, tagged fusion proteins were incubated with a Europium-labeled antibody and a HyLite Fluor 647-labeled peptide, or a biotin-labeled peptide with a streptavidin-labeled ulight fluorophore allowing the assembly of donor and acceptor dye pairs for use in protein-binding assays.
(§3) The reaction final concentrations for Mcl-1 were 1.5 nM GST-Mcl-1, 0.5 nM LanthaScreen Eu tagged GST antibody (LifeTechnologies cat#PV5594), and 4 nM HyLite Fluor 647-labeled Bim peptide C (Hilyte647 C2 Maleimide)-[…]; for Bcl-xl were 2 nM GST-Bcl-xl, 2 nM LanthaScreen Eu-tagged GST antibody, and 10 nM HyLite Fluor 647-labeled BAK peptide C(Hilyte647 C2 Maleimide)-[…]; for Bfl-1 were 4 nM His-Bfl-1, 0.5 nM LanthaScreen Eu-tagged HIS antibody (PerkinElmer cat#AD0205), and 10 nM HyLite Fluor 647-labeled BIM peptide C(Hilyte647-C2-Maleimide)-[…]; for Bcl-2 and Bcl-w: 2 nM His-Bcl-2, or 2 nM His-Bcl-w, with 0.5 nM LanthaScreen Eu-tagged HIS antibody, 10 nM biotin-labeled Bim peptide (Biotin-lc-[…]), and 2.4 nM a streptavidin labeled ULight Fluorophore (PerkinElmer cat#TRF0102-D). Reactions were incubated at 24 °C for 120–180 min before reading on a Tecan (InfiniteM1000 spectrofluorometer) with excitation at 340 nm and emission at […] and 665 nm. Ratio of fluorescent emission intensity at 665–620 nm was calculated for each reaction (equation 1). Percent inhibition was calculated based upon min (control compound) vs. max (DMSO) according to Eq. (2) and the IC50 was derived the smart fit curve (Genedata screener) of % inhibition vs. concentration. Ki values were calculated from Eq. […]

Bcl-w = biological target: T2, Bcl-w (Homo sapiens, UniProt Q92843); experiment: TR-FRET binding assay
T2 construct: N-Terminal 6His-tagged Bcl-w protein from Bcl-w (M1-R171); made in house; host or cells: E. coli
T2 sequence (Q92843 1-171): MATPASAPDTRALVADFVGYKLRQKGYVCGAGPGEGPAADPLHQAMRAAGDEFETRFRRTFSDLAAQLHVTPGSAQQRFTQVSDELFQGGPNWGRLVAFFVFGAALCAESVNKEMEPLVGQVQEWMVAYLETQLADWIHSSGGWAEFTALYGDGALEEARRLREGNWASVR
Text: as §1, §2, §3

Bcl-2 = biological target: T3, Bcl-2 (Homo sapiens, UniProt P10415); experiment: TR-FRET binding assay
T3 construct: C-Terminal 6His-tagged Bcl-2 protein from Bcl-2 (M1-F212); made in house; host or cells: E. coli
Text: as §1, §2, §3

Bcl-xL = Bcl-xL (Homo sapiens, UniProt Q07817); experiment: TR-FRET binding assay
Text: as §1, §2, §3

NB4 = experiment: Caspase-3/7 activation assay; type: cell-based; settings: Homo sapiens, NB-4, 6 h
Protocol: as §4

OCIAML2 = experiment: Cell viability assay; type: cell-based; settings: Homo sapiens, OCI-AML2, 24 h; OCIAML2 (AML); read-out: AZD5991 24h GI50
Protocol: as §4

KMS12BM = experiment: Cell viability assay; type: cell-based; settings: Homo sapiens, KMS-12-BM, 24 h; KMS12BM (MM); read-out: AZD5991 24h GI50
DU145 = experiment: Cell viability assay; type: cell-based; settings: Homo sapiens, DU-145, 24 h; DU145 (Urology); read-out: AZD5991 24h GI50
Protocol: as §4

[1] = single i.v. dose 60 mg kg^−1, ten days after treatment

Bcl-xL, sequence (Q07817 1-209): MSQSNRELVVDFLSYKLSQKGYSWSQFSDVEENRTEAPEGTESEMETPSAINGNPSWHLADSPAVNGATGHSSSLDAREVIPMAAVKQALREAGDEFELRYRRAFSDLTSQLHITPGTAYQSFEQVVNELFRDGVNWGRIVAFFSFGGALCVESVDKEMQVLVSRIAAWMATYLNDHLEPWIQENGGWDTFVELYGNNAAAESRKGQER
T3 sequence (P10415 1-212): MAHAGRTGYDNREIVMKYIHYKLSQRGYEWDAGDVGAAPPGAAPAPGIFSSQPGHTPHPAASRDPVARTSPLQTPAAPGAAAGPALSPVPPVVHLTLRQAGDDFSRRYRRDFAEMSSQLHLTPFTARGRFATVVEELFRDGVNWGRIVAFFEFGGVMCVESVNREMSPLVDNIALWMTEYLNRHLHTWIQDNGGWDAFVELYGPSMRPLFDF
T1 sequence (Q16548 1-151): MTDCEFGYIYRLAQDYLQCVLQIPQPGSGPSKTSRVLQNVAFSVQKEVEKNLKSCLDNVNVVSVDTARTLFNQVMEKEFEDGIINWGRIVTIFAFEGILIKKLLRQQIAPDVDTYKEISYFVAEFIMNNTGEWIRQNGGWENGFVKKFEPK

Work on `Cc1c2c(nn1C)CSCc1cc(n(C)n1)CSc1cc(c3ccccc3c1)OCCCc1c(C(=O)O)n(C)c3c-2c(Cl)ccc13` (atropisomer, axis not shown; (Ra)) [(Ra)-7] yielded a GI50 (HMCB) of 3 µM, an EC50 (KG1; read-out: 6h caspase EC50, KG1, single agent) greater than 0.333 µM and an EC50 (KG1; read-out: AZD5991 6h EC50, KG1 (AML), caspase 3/7 activation) of 0.509 µM. The GI50 (H647) was greater than 30 µM, the “tolerability, body weight” value (MOLP-8 tumors; all dose levels, 10–100 mg kg^−1 single i.v. dose) was “no significant body weight loss” and the “mice with tumor regression after second dose” value (MOLP-8 tumors; single dose 36 days after the first dose, 100 mg kg^−1 i.v., regrown tumors) was 4 out of 4. The “tumor growth inhibition (TGI)” value (MOLP-8 tumors; single i.v. dose 10 mg kg^−1, ten days after treatment) was 52%, the “tumor growth inhibition (TGI)” value (MOLP-8 tumors; single i.v. dose 30 mg kg^−1, ten days after treatment) was 93% and the “mice with no detectable tumors” value (MOLP-8 tumors; [1]) was 6 out of 7. The “tumor regression (TR)” value (MOLP-8 tumors; [1]) was 99%, the “mice with complete TR” value (MOLP-8 tumors; single i.v. dose 100 mg kg^−1, ten days after treatment) was 7 out of 7 and the IC50 (Bfl-1; FRET) was 24 µM. The Ki (Bfl-1; calculated from FRET IC50) was 12 µM, the IC50 (Bcl-w; FRET) was 49 µM and the Ki (Bcl-w; calculated from FRET IC50) was 25 µM. For the same molecule, the IC50 (Bcl-2; FRET) was 20 µM, the Ki (Bcl-2; calculated from FRET IC50) was 6.8 µM and the IC50 (Bcl-xL; FRET) was 36 µM. It also gave a Ki (Bcl-xL; calculated from FRET IC50) of 18 µM, an EC50 (NB4; read-out: 6h caspase EC50, NB4, single agent) of 0.201 µM and an EC50 (NB4; read-out: AZD5991 6h EC50, NB4 (AML), caspase 3/7 activation) of 0.347 µM. For the same molecule, the GI50 (OCIAML2) was 0.295 µM, the GI50 (KMS12BM) was 0.015 µM and the GI50 (DU145) was 26.8 µM.
